From the supplement of paper PMC10307832

Key:
Assay in all cases: relative viability (nuclei count vs DMSO), 5 days (fraction); higher = more cells survive
Cediranib + Foretinib = compound: COc1cc2c(Oc3ccc4[nH]c(C)cc4c3F)ncnc2cc1OCCCN1CCCC1 [Cediranib] + COc1cc2c(Oc3ccc(NC(=O)C4(C(=O)Nc5ccc(F)cc5)CC4)cc3F)ccnc2cc1OCCCN1CCOCC1 [Foretinib] (partner 0.25 µM)
How it was run: (§1)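 Relative viability divides the nuclei count in treated wells by that in vehicle wells. Lung cancer cell lines were seeded in 1536-well plates, dosed by pin tool the next day, and fixed and stained after 5 days in one step with final 0.05% Triton X-100, 1% formaldehyde and 1 ug/ml Hoechst. Dosing was a single drug or a fixed anchor-drug dose plus five library-drug doses (not always all listed) in √10 steps, and values are medians of duplicate plates imaged at 4×.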

Cediranib + Decitabine = compound: COc1cc2c(Oc3ccc4[nH]c(C)cc4c3F)ncnc2cc1OCCCN1CCCC1 [Cediranib] + Nc1ncn([C@H]2C[C@H](O)[C@@H](CO)O2)c(=O)n1 [Decitabine] (partner 2 µM)
How it was run: as §1

Decitabine + OSI-027 = compound: Nc1ncn([C@H]2C[C@H](O)[C@@H](CO)O2)c(=O)n1 [Decitabine] + COc1cccc2cc(-c3nc([C@H]4CC[C@H](C(=O)O)CC4)n4ncnc(N)c34)[nH]c12 [OSI-027] (partner 0.5 µM)
How it was run: as §1

[1] = compound: O=C(C[C@H]1NCCC[C@@H]1O)Cn1cnc2cc(Br)c(Cl)cc2c1=O (racemic) [Halofuginone] + CS(=O)(=O)N1CCN(Cc2cc3nc(-c4cccc5[nH]ncc45)nc(N4CCOCC4)c3s2)CC1 [Pictilisib] (partner 1 µM)
How it was run: as §1

Cell Line	relative viability (Cediranib + Foretinib; first compound 0.04 µM)	relative viability (Cediranib + Foretinib; first compound 0.1265 µM)	relative viability (Cediranib + Foretinib; first compound 0.4 µM)	relative viability (Cediranib + Foretinib; first compound 1.265 µM)	relative viability (Cediranib + Foretinib; first compound 4 µM)	relative viability (Cediranib + Decitabine; first compound 0.04 µM)	relative viability (Cediranib + Decitabine; first compound 0.1265 µM)	relative viability (Cediranib + Decitabine; first compound 0.4 µM)	relative viability (Cediranib + Decitabine; first compound 1.265 µM)	relative viability (Cediranib + Decitabine; first compound 4 µM)	relative viability (Decitabine + OSI-027; first compound 0.04 µM)	relative viability (Decitabine + OSI-027; first compound 0.1265 µM)	relative viability (Decitabine + OSI-027; first compound 0.4 µM)	relative viability (Decitabine + OSI-027; first compound 1.265 µM)	relative viability (Decitabine + OSI-027; first compound 4 µM)	relative viability ([1]; first compound 0.001 µM)	relative viability ([1]; first compound 0.003162 µM)	relative viability ([1]; first compound 0.01 µM)	relative viability ([1]; first compound 0.03162 µM)	relative viability ([1]; first compound 0.1 µM)
NCI-H1651	0.827	0.763	0.685	0.831	0.829	0.482	0.538	0.669	0.542	0.652	0.586	0.842	0.777	0.573	0.478	0.677	0.586	0.548	0.522	0.243
NCI-H441	1.09		0.87	0.794	1.14	0.288	0.234	0.275	0.251	0.286	0.415	0.441	0.246	0.261	0.255	0.482	0.466	0.489	0.415	0.385
ABC-1	1.17	1.2	1.04		0.879	0.866	1.11	1.19	1.05	1.04	0.554	0.387	0.492	0.424	0.37	0.415	0.922	0.836	0.728	0.51
NCI-H2126	1.26	1.2	1.04	1.16	1.05	0.589	0.573	0.58	0.561	0.602	0.659	0.67	0.489	0.465	0.44	0.562	0.486	0.533	0.485	0.427
RERF-LC-KJ	0.917	0.889	0.873	0.862	0.953	0.657	0.629	0.715	0.666	0.684	0.529	0.559		0.457	0.471	0.568	0.601	0.543	0.531	0.433
NCI-H1666	0.972	1.01	0.916	0.945	1	0.738	0.624	0.728	0.87	0.727	0.785	0.82	0.742	0.595	0.676	0.483	0.357	0.443	0.406	0.323
PC-14	1.04	1.08	0.861	0.997	0.928	0.209	0.245	0.241	0.309	0.264	0.148	0.425	0.16	0.113	0.105	0.573	0.635	0.5	0.262	0.037
NCI-H1915	1.14	1.01	1.08	1.11	1.13	0.259	0.248	0.259	0.26	0.28	0.447	0.429	0.29	0.312	0.263	0.917	1.04	0.915	0.861	0.882
NCI-H661	1.04	0.971	0.956	0.978	1.11	0.663	0.598	0.529	0.531	0.588	0.55	0.628	0.474	0.374	0.346	0.496	0.355	0.365	0.408	0.444
SK-MES-1	0.834	1.02	0.927	0.901	0.976	0.427	0.394	0.436	0.384	0.387	0.508	0.529	0.384	0.188	0.203	0.366	0.358	0.362	0.211	0.145
NCI-H1944	0.95	0.975	0.905	0.873	1	0.443	0.396	0.422	0.443	0.45	0.372	0.424	0.353	0.329	0.354	0.317	0.398	0.347	0.35	0.307
HCC-78	0.584	0.73	0.576	0.58	0.593	0.74	0.64	0.747	0.605	0.771	0.344	0.365	0.345	0.353	0.344	0.216	0.193	0.206	0.21	0.221
PC-3 [JPC-3]	1.1	1.1	0.98	1.05	1.08	0.804		0.777	0.737	0.753	0.463	0.702	0.475	0.469	0.426	0.703	0.78	0.699	0.772	0.769
LCLC-103H	0.819	0.964	0.686	0.823	0.832	0.789	0.815	0.781	0.731	0.761	0.406	0.472	0.462	0.376	0.376	0.627	0.605	0.601	0.668	0.685
EKVX	0.67	0.418	0.74	0.705	0.751	0.332	0.342	0.341		0.392	0.494	0.516	0.461	0.303	0.297	0.442	0.442	0.443	0.469	0.354
NCI-H460	1.01	1.02	1.02	0.944	1.04	0.505	0.47	0.485	0.479	0.587	0.603	0.848	0.598	0.308	0.215	0.393	0.345	0.336	0.345	0.299
